The results in this text go back to ChEMBL document CHEMBL1201862, “PubChem BioAssay data set” (2004).

The subject of one assay is Escherichia coli. Put plainly: microbe, parasite or virus in culture.
The next assay has as its target T1, Bcl-2-related protein A1 (Mus musculus, UniProt Q07440).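 Note: confirmatory dose–response counterscreen on Bfl-1, used to check hits from a UBC13 polyubiquitin inhibitor campaign.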
T1 sequence (Q07440 whole entry): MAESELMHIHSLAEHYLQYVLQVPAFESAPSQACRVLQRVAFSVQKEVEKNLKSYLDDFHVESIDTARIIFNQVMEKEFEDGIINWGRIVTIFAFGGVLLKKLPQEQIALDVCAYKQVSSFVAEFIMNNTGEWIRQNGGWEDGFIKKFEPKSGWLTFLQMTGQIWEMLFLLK
It counts as functional.

Assay [1] addresses T2, Ubiquitin-conjugating enzyme E2 N (Homo sapiens, UniProt P61088).
T2 sequence (P61088 whole entry): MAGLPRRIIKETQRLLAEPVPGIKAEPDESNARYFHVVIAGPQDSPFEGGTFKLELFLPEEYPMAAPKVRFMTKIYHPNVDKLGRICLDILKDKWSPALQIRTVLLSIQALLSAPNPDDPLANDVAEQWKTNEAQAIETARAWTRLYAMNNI
It counts as functional.

Assay [2] deals with T2, Ubiquitin-conjugating enzyme E2 N. It counts as functional. The source holds these as a separate data set.
Assay [3] deals with 5-hydroxytryptamine receptor 5A (Homo sapiens, UniProt P47898). Put plainly: Counterscreen for agonists of OPRM1-OPRD1 heterodimerization: luminescence-based cell-based high throughput dose response assay to identify agonists of 5-hydroxytryptamine (serotonin) 5A receptor (HTR5A). [Related pubchem assays (depositor defined):AID504326, AID504355, AID504692, AID504904, AID504905]. It counts as functional.
Sequence of 5-hydroxytryptamine receptor 5A (P47898 whole entry): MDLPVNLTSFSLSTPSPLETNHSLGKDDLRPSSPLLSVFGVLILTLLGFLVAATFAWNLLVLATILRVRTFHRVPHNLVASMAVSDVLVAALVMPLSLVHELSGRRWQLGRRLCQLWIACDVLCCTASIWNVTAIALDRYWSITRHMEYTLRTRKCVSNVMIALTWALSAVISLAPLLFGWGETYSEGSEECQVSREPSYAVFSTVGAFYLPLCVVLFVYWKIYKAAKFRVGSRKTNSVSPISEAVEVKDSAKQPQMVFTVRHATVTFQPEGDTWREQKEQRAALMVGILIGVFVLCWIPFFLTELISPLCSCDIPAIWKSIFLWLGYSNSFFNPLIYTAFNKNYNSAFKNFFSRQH

Assay [4] has as its target T3, Short transient receptor potential channel 4 (Mus musculus, UniProt Q9QUQ5).
T3 sequence (Q9QUQ5 whole entry): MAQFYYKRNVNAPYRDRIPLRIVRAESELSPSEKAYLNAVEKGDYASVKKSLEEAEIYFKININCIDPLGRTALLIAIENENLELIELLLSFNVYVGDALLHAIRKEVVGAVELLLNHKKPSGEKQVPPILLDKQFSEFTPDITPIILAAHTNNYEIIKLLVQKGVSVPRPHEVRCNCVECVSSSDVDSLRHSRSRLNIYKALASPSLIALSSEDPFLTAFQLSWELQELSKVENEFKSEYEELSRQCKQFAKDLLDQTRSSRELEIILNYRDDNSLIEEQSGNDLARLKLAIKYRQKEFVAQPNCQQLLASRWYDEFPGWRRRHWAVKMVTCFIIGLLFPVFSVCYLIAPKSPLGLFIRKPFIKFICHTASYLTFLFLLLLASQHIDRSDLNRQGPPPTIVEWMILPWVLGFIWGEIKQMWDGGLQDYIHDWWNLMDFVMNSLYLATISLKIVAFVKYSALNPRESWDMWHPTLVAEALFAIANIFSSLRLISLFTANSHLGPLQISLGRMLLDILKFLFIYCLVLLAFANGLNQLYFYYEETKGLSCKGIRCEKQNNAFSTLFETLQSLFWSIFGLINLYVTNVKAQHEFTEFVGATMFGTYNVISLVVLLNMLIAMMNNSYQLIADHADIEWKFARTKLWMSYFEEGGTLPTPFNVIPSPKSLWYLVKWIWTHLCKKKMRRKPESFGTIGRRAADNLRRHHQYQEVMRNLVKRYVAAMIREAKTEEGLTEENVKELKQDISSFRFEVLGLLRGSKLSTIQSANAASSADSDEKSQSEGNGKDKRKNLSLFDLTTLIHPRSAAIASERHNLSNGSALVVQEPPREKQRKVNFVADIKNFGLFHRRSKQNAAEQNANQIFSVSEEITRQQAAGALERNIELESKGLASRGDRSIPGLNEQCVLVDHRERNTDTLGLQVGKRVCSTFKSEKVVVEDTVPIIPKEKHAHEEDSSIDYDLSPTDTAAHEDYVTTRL
Put plainly: mouse TRPC4 channel activators, dose response, cell-based, HEK293 TRPC4/mu-opioid, Fluo-4 calcium (AID 434937). It counts as functional.

For the next assay, the target named is Mu-type opioid receptor (Homo sapiens, UniProt P35372). As to the kind of experiment: Counterscreen for agonists of heterodimerization of the mu 1 (OPRM1) and delta 1 (OPRD1) opioid receptors: Luminescence-based cell-based high throughput dose response assay to identify agonists of OPRM1 homodimerization. Type of assay: functional.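 Note: U2OS cells expressing OPRM1 and beta-arrestin as split beta-galactosidase partners.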
Sequence of Mu-type opioid receptor (P35372 whole entry): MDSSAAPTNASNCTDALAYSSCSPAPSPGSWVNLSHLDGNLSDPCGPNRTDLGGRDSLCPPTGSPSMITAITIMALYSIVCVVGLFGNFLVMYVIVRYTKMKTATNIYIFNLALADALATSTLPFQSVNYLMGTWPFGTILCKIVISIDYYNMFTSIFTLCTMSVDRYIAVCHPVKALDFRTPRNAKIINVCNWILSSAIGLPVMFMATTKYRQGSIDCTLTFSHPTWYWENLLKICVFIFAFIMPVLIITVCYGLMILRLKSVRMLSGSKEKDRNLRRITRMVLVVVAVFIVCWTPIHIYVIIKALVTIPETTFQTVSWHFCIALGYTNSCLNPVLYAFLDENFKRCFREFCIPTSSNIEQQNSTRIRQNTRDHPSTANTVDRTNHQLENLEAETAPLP
For assay [5], the target named is Delta-type opioid receptor (Homo sapiens, UniProt P41143). Put plainly: Counterscreen for agonists of heterodimerization of the mu 1 (OPRM1) and delta 1 (OPRD1) opioid receptors: Luminescence-based cell-based high throughput dose response assay to identify agonists of OPRD1 homodimerization. [Related pubchem assays (depositor defined):AID504326, AID504355, AID504692, AID504904, AID504905]. Type of assay: functional. (Counterscreens check selectivity or assay interference.)
Sequence of Delta-type opioid receptor (P41143 whole entry): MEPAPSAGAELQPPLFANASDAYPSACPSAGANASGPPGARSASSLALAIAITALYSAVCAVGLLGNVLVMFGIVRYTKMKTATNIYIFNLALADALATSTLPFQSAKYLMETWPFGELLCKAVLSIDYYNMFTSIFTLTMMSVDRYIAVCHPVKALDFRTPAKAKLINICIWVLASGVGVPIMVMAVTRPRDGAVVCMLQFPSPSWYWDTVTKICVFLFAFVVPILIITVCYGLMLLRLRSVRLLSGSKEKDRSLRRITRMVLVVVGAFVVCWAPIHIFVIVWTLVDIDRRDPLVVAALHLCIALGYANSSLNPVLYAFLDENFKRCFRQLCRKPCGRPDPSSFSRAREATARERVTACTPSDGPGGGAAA

For assay [6], the target named is T4, Tyrosine-protein phosphatase non-receptor type 22 (Homo sapiens, UniProt Q9Y2R2).
T4 sequence (Q9Y2R2 whole entry): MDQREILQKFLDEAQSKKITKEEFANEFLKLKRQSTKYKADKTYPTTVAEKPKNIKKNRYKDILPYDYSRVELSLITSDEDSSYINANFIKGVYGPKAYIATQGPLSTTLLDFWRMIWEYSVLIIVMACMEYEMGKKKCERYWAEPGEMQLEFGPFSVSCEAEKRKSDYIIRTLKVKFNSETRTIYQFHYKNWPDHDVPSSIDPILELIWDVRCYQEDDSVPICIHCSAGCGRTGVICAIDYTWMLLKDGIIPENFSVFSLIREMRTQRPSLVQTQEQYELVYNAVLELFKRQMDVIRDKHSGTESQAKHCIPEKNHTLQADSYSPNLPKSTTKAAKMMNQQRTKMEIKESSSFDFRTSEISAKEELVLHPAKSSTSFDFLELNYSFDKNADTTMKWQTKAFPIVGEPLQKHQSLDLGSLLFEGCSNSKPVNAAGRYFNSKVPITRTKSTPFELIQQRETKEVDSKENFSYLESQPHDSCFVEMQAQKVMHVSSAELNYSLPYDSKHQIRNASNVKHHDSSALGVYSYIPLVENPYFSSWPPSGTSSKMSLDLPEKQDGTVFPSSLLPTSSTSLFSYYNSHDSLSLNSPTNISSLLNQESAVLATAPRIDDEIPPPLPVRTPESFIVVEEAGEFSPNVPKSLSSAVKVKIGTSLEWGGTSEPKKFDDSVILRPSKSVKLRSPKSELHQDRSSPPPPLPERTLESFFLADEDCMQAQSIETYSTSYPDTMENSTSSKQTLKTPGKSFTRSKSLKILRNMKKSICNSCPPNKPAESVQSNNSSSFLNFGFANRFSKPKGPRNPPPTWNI
As to the kind of experiment: SAR LYP1 Fluorescent Assay using OMFP substrate for In Vitro dose response studies - Set 3. [Related pubchem assays (depositor defined):AID1779, AID1784, AID2140, AID2686]. Type of assay: functional.

In assay [7] the target is T4, Tyrosine-protein phosphatase non-receptor type 22. Put plainly: SAR LYP1 Fluorescent Assay using pCAP substrate for In Vitro dose response studies - Set 2. [Related pubchem assays (depositor defined):AID1779, AID1784, AID2135, AID449727]. It counts as functional.
The target of assay [8] is T5, Tyrosine-protein phosphatase non-receptor type 12 (Homo sapiens, UniProt Q05209).
T5 sequence (Q05209 whole entry): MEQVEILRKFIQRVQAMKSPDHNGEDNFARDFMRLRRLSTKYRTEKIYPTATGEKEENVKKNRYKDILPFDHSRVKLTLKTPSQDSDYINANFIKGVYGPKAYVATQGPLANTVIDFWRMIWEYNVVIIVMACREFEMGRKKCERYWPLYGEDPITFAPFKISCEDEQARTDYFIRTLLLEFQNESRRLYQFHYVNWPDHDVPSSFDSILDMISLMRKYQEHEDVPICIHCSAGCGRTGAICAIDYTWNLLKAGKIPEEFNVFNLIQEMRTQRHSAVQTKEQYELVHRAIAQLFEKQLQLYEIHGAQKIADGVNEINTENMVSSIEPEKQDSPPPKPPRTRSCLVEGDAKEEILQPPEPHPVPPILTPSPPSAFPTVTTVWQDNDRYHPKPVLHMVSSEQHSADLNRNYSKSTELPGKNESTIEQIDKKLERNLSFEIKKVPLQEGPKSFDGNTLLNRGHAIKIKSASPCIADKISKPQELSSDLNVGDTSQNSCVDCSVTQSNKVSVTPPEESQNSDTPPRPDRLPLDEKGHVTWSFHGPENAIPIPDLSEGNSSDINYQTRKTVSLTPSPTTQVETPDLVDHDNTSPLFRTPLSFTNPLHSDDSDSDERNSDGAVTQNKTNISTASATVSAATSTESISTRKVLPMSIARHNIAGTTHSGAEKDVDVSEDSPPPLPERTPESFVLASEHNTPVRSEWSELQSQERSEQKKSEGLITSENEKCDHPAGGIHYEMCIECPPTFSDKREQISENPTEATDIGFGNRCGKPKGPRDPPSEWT
As to the kind of experiment: SAR Selectivity Analysis of small molecule inhibitors of PEST using pCAP in a fluorescence assay. [Related pubchem assays (depositor defined):AID1779, AID1784, AID2135]. It counts as functional.

Assay [9] has as its target T4, Tyrosine-protein phosphatase non-receptor type 22. As to the kind of experiment: SAR LYP1 Fluorescent Assay using OMFP substrate for In Vitro dose response studies - Set 2. [Related pubchem assays (depositor defined):AID1779, AID1784, AID2140, AID449726, AID488869]. It counts as functional.
Assay [10] addresses T6, Tyrosine-protein phosphatase non-receptor type 7 (Homo sapiens, UniProt P35236).
T6 sequence (P35236 whole entry): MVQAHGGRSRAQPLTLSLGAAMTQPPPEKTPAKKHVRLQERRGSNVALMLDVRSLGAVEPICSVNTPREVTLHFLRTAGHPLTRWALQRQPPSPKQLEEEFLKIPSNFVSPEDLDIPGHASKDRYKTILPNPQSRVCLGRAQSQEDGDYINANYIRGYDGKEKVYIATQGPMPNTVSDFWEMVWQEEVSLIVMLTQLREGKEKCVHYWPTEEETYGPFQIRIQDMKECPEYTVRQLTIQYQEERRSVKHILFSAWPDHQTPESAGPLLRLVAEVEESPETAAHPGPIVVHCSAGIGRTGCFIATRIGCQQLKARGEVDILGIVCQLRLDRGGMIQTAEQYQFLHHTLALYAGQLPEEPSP
Put plainly: HePTP (PTPN7) phosphatase inhibitor potency, SAR follow-up, biochemical, set 2 (AID 449736). Type of assay: functional.

Assay [11] addresses T4, Tyrosine-protein phosphatase non-receptor type 22. As to the kind of experiment: LYP (PTPN22) phosphatase inhibitor potency, SAR follow-up, biochemical, pCAP fluorogenic substrate, fluorescence, set 3 (AID 449727). It counts as functional.

The source made the active and inactive calls. Cut-off read from the data, not from the text of the source, for most assays here: actives have a measured IC50 and inactives only a lower limit.

Broadly, the AC50 is the midpoint of the concentration-response curve, whichever way the signal moves. What is called IC50 is the concentration needed to halve the response being measured. What is called EC50 is the concentration at which the effect is half-maximal.

For the compound `O=C(CSc1nccn1Cc1ccccc1)NC1CCCC1`, the AC50 with Escherichia coli is 25.5 µM (active).

Consider `C#CC(C)(CC)NC(=O)c1cc2cccc(CC=C)c2oc1=O` (centres undefined), for which the AC50 in the assay with Escherichia coli was 23.8 µM (active).

As for `CN(C)CCCN(C(=O)c1ccc(S(=O)(=O)N2CCCCC2)cc1)c1nc2cc3c(cc2s1)OCO3`, the IC50 on Bcl-2-related protein A1 is > 20 µM (inactive); in [1], > 20 µM (inactive); in assay [2], 12.7 µM (active).

Take `COc1ccc(C(CNC(=O)c2ccc3c(c2)CCC3)N(C)C)cc1` (centres undefined): the EC50 in assay [3] was > 92.5 µM (inactive); in assay [4] it was 0.0053 µM (active); on Mu-type opioid receptor, 0.503 µM (active); in assay [5], 7.36 µM (active).

With `CCOc1ccc(/C=N/NC(=O)c2ccc(-c3csc(Nc4ccc(C)cc4)n3)cc2)cc1OCC`, the IC50 is > 100 µM (inactive) in assay [6]; > 100 µM (inactive) in [7]; > 100 µM (inactive) in [8]; 95.3 µM (active) in assay [9]; 60.8 µM (active) in [10]; > 100 µM (inactive) in assay [11].

For `COc1cc(/C=C2/SC(=S)N(c3cccc(C(=O)O)c3)C2=O)cc(Cl)c1OCc1cccc(C(=O)O)c1`, the IC50 in [6] is 62.8 µM (active); in assay [7], 12.2 µM (active); in assay [8] it was 2.81 µM (active); in assay [9], 14.6 µM (active); in [10], 3.81 µM (active); in [11] it was 20.4 µM (active).

For `Cc1cccnc1NC(=O)c1cccc(S(=O)(=O)N2CCCc3ccccc32)c1`, the AC50 in the assay on Escherichia coli was 23.6 µM (active).

On to `COc1cc(/C=C2/SC(=S)N(c3cccc(C(=O)O)c3)C2=O)ccc1OCc1ccc(Cl)cc1`, for which the half-inhibitory concentration (IC50) in assay [6] is 3.06 µM (active); in assay [7], 3.68 µM (active); in assay [8], 0.953 µM (active); in assay [9], 4.04 µM (active); in [10] it was 0.394 µM (active); in assay [11], 3.49 µM (active).

For `CCOc1ccc(NC(=O)Cn2c(=O)n(CCCC(=O)NC3CCN(Cc4ccccc4)CC3)c(=O)c3ccccc32)cc1`, the IC50 is > 20 µM (inactive) at Bcl-2-related protein A1, 5.19 µM (active) in assay [1] and 5.27 µM (active) in assay [2].

On to `CCN1CCN(S(=O)(=O)c2ccc(Cl)c(C(=O)N(CCc3ccccc3)Cc3ccccc3)c2)CC1`, for which the EC50 (in [3]; on Mu-type opioid receptor; in [5]) was > 92.5 µM (inactive) each time.
